Measurements as given in BindingDB's records for doi:10.1021/jm401604x (University of Auckland, 2014).

experiment: Inhibition of recombinant perforin (unknown origin)-mediated lysis of human [51Cr]-labelled Jurkat cells assessed as release of [51Cr] preincubated for 30 mins followed by addition of cells measured after 4 hrs by gamma counting analysis

Compound | IC50 [µM]
O=C1NC(=S)N/C1=C/c1ccc(-c2ccccc2)s1 | > 20
O=C1NC(=S)N/C1=C/c1ccc(-c2ccccc2Cl)s1 | > 20
CN(C)CCCN1Cc2cc(-c3ccc(/C=C4/NC(=S)NC4=O)s3)ccc2C1=O | > 20

Second part, the compound after the results:

IC50 [µM] | Compound
> 20 | O=C1NC(=S)N/C1=C/c1ccc(-c2ccc(C(=O)N3CCOCC3)cc2)s1
> 20 | CN1CCN(CCCN2Cc3cc(-c4ccc(/C=C5/NC(=S)NC5=O)s4)ccc3C2=O)CC1
> 20 | O=C1NC(=S)N/C1=C/c1ccc(-c2ccc(C(=O)NCCN3CCOCC3)cc2)s1
